In patent US12528786B2, “Plasma kallikrein inhibitors” (Merck Sharp & Dohme LLC, priority 2020, dated 2026):

Each compound was assayed against T1, Human plasma kallikrein (Homo sapiens, UniProt P03952) (assay: Kallikrein Assay (fluorogenic substrate hydrolysis, AFC release)). Settings: purified Human plasma kallikrein 0.5 nM; substrate Acetyl-K—P—R-AFC 100 mM; 50 mM HEPES pH 7.4.
T1 construct: yields a heavy chain (371 amino acids) and a light chain (248 amino acids); purchased Enzyme Research Laboratories
Type: biochemical
Description: The effectiveness of a compound of the present invention as an inhibitor of Kallikrein can be determined using a relevant purified serine protease, and an appropriate synthetic substrate. The rate of hydrolysis of the chromogenic or fluorogenic substrate by the relevant serine protease was measured both in the absence and presence of compounds of the present invention. Assays were conducted at room temperature or at 37° C. […] A decrease in the rate of fluorescence change in the presence of inhibitor is indicative of enzyme inhibition. Such methods are known to one skilled in the art. The results of this assay are expressed as the half-maximal inhibitory concentrations (IC50), or the inhibitory constant, Ki.
Kallikrein determinations were made in 50 mM HEPES buffer at pH 7.4 containing 150 mM NaCl, 5 mM CaCl2), and 0.1% PEG 8000 (polyethylene glycol; Fisher Scientific). Determinations were made using purified Human plasma kallikrein at a final concentration of 0.5 nM (Enzyme Research Laboratories) and the synthetic substrate, Acetyl-K—P—R-AFC (Sigma #C6608) at a concentration of […].
Activity assays were performed by diluting a stock solution of substrate at least tenfold to a final concentration ≤0.2 Km into a solution containing enzyme or enzyme equilibrated with inhibitor. Times required to achieve equilibration between enzyme and inhibitor were determined in control experiments. The reactions were performed under linear progress curve conditions and fluorescence increase measured at 405 Ex/510 Em nm. Values were converted to percent inhibition of the control reaction (after subtracting 100% Inhibition value). IC50 was determined by inflection point from a four parameter logistic curve fit. Ki was calculated using the Cheng Prusoff equation, Ki=IC50/(1+([S]/Km)).

T1 sequence (P03952 391-638 limits assumed): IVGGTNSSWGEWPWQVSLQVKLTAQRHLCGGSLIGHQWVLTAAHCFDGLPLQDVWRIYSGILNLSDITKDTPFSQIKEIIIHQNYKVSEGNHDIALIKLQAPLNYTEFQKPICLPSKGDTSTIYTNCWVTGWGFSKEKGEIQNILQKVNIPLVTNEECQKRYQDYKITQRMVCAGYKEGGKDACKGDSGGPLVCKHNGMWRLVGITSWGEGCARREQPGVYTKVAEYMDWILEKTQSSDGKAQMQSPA
T1 sequence (P03952 20-390 partner limits assumed): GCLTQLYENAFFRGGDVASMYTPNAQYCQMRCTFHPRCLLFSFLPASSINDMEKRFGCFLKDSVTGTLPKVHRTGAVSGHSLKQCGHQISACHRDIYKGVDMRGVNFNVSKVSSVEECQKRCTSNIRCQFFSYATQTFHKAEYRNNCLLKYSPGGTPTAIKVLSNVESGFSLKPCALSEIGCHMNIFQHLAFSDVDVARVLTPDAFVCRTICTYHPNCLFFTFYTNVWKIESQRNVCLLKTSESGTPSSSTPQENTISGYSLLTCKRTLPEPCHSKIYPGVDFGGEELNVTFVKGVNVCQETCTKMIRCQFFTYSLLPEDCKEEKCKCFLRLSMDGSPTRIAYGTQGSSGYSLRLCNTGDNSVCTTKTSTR

SMILES	IC50
Cc1cc(N2C[C@H]3C[C@H]3C2=O)nnc1C(C)n1cc(C(=O)N[C@H]2C[C@@H](c3cc(Cl)ccc3C#N)C2)cn1 (single isomer, unassigned) [Example 48, N-((cis)-3-(5-chloro-2-cyanophenyl)cyclobutyl)-1-((S or R)-1-(4-methyl-6-((1R,5S)-2-oxo-3-azabicyclo[3.1.0]hexan-3-yl)pyridazin-3-yl)ethyl)-1H-pyrazole-4-carboxamide]	127 nM
N#Cc1ccc(Cl)cc1[C@H]1C[C@@H](NC(=O)c2cn(Cc3cnc(N4C[C@H]5C[C@H]5C4=O)nc3)nn2)C1 [Example 79, N-((cis)-3-(5-chloro-2-cyanophenyl)cyclobutyl)-1-((2-((1R,5S)-2-oxo-3-azabicyclo[3.1.0]hexan-3-yl)pyrimidin-5-yl)methyl)-1H-1,2,3-triazole-4-carboxamide]	16.1 nM
Cc1cc(N2C[C@H]3C[C@H]3C2=O)ncc1[C@@H](C)c1cc(C(=O)N[C@H]2C[C@@H](c3cc(Cl)ccc3C#N)C2)n(C)n1 [Example 174, N-((cis)-3-(5-chloro-2-cyanophenyl)cyclobutyl)-1-methyl-3-((R)-1-(4-methyl-6-((1R,5S)-2-oxo-3-azabicyclo[3.1.0]hexan-3-yl)pyridin-3-yl)ethyl)-1H-pyrazole-5-carboxamide]	26.9 nM
Cc1nc(N2C[C@H]3C[C@H]3C2=O)ncc1C(C)n1cc(C(=O)NC2CC(C)(c3cc(Cl)ccc3C#N)C2)nn1 (single isomer, unassigned) [Example 83, N-((cis)-3-(5-chloro-2-cyanophenyl)-3-methylcyclobutyl)-1-((S or R)-1-(4-methyl-2-((1R,5S)-2-oxo-3-azabicyclo[3.1.0]hexan-3-yl)pyrimidin-5-yl)ethyl)-1H-1,2,3-triazole-4-carboxamide]	39.5 nM
CC(c1cnc(N2C[C@H]3C[C@H]3C2=O)c(F)c1)n1cc(C(=O)N[C@H]2C[C@@H](c3cc(Cl)ccc3C#N)C2)nn1 (single isomer, unassigned) [Example 104, N-((cis)-3-(5-chloro-2-cyanophenyl)cyclobutyl)-1-((S or R)-1-(5-fluoro-6-((1R,5S)-2-oxo-3-azabicyclo[3.1.0]hexan-3-yl)pyridin-3-yl)ethyl)-1H-1,2,3-triazole-4-carboxamide]	4.3 nM
Cc1ccc(C#N)c([C@H]2C[C@@H](NC(=O)c3cn(C(C)c4cnc(N5C[C@H]6C[C@H]6C5=O)c(F)c4C)nn3)C2)c1 (single isomer, unassigned) [Example 119, N-((cis)-3-(2-cyano-5-methylphenyl)cyclobutyl)-1-((R or S)-1-(5-fluoro-4-methyl-6-((1R,5S)-2-oxo-3-azabicyclo[3.1.0]hexan-3-yl)pyridin-3-yl)ethyl)-1H-1,2,3-triazole-4-carboxamide]	26 nM
Cc1c([C@H](C)n2cc(C(=O)N[C@H]3C[C@@H](c4cc(Cl)ccc4C#N)C3)nn2)cnc(N2C[C@H]3C[C@H]3C2=O)c1O (relative stereo) [Example 164, N-((cis)-3-(5-chloro-2-cyanophenyl)cyclobutyl)-1-((S)-1-(5-hydroxy-4-methyl-6-((1R,5S)-2-oxo-3-azabicyclo[3.1.0]hexan-3-yl)pyridin-3-yl)ethyl)-1H-12,3-triazole-4-carboxamide]	46.7 nM
Cc1ccnc([C@H]2C[C@@H](NC(=O)c3cnn(C(C)c4cnc(N5C[C@H]6C[C@H]6C5=O)cc4C)c3)C2)c1 (single isomer, unassigned) [Example 33, 1-((S or R)-1-(4-methyl-6-((1R,5S)-2-oxo-3-azabicyclo[3.1.0]hexan-3-yl)pyridin-3-yl)ethyl)-N-((cis)-3-(4-methylpyridin-2-yl)cyclobutyl)-1H-pyrazole-4-carboxamide]	84.4 nM

Compounds with a lower IC50, results first:

IC50	SMILES
2.4 nM	Cc1cc(C(C)n2cc(C(=O)N[C@H]3C[C@@H](c4cc(Cl)ccc4C#N)C3)cn2)nnc1N1C[C@H]2C[C@H]2C1=O (single isomer, unassigned) [Example 30, N-((cis)-3-(5-chloro-2-cyanophenyl)cyclobutyl)-1-((R or S)-1-(5-methyl-6-((1R,5S)-2-oxo-3-azabicyclo[3.1.0]hexan-3-yl)pyridazin-3-yl)ethyl)-1H-pyrazole-4-carboxamide]
2 nM	COc1cc(C(C)n2cc(C(=O)N[C@H]3C[C@@H](c4cc(Cl)ccc4C#N)C3)nn2)cnc1N1C[C@H]2C[C@H]2C1=O (mixture of isomers) [Example 100, N-((cis)-3-(5-chloro-2-cyanophenyl)cyclobutyl)-1-((R and S)-1-(5-methoxy-6-((1R,5S)-2-oxo-3-azabicyclo[3.1.0]hexan-3-yl)pyridin-3-yl)ethyl)-1H-1,2,3-triazole-4-carboxamide]
0.2 nM	COc1c(N2C[C@H]3C[C@H]3C2=O)ncc(C(C)n2cc(C(=O)N[C@H]3C[C@@H](c4cc(Cl)ccc4C#N)C3)cn2)c1C (single isomer, unassigned) [Example 44, N-((cis)-3-(5-chloro-2-cyanophenyl)cyclobutyl)-1-((S or R)-1-(5-methoxy-4-methyl-6-((1R,5S)-2-oxo-3-azabicyclo[3.1.0]hexan-3-yl)pyridin-3-yl)ethyl)-1H-pyrazole-4-carboxamide]
3.6 nM	Cc1cc(N2C[C@H]3C[C@H]3C2=O)ncc1C(C)n1cc(C(=O)N[C@H]2C[C@@](C)(c3cc(Cl)ccc3C#N)C2)cn1 (single isomer, unassigned) [Example 10, N-((cis)-3-(5-chloro-2-cyanophenyl)-3-methylcyclobutyl)-1-((S or R)-1-(4-methyl-6-((1R,5S)-2-oxo-3-azabicyclo[3.1.0]hexan-3-yl)pyridin-3-yl)ethyl)-1H-pyrazole-4-carboxamide]
1.1 nM	Cc1cc(N2C[C@H]3C[C@H]3C2=O)ncc1Cn1cc(C(=O)N[C@H]2C[C@@H](c3cc(Cl)ccc3C#N)C2)c(C(F)F)n1 [Example 38, N-((cis)-3-(5-chloro-2-cyanophenyl)cyclobutyl)-3-(difluoromethyl)-1-((4-methyl-6-((1R,5S)-2-oxo-3-azabicyclo[3.1.0]hexan-3-yl)pyridin-3-yl)methyl)-1H-pyrazole-4-carboxamide]
0.3 nM	Cc1c(C(C)n2cc(C(=O)N[C@H]3C[C@@H](c4cc(Cl)ccc4C#N)C3)cn2)nnc(N2C[C@H]3C[C@H]3C2=O)c1C (single isomer, unassigned) [Example 42, N-((cis)-3-(5-chloro-2-cyanophenyl)cyclobutyl)-1-((S or R)-1-(4,5-dimethyl-6-((1R,5S)-2-oxo-3-azabicyclo[3.1.0]hexan-3-yl)pyridazin-3-yl)ethyl)-1H-pyrazole-4-carboxamide]
0.7 nM	Cc1c(C(C)n2cc(C(=O)N[C@H]3C[C@@H](c4cc(Cl)ccc4C#N)C3)cn2)cnc(N2C[C@H]3C[C@H]3C2=O)c1C (single isomer, unassigned) [Example 40, N-((cis)-3-(5-chloro-2-cyanophenyl)cyclobutyl)-1-((S or R)-1-(4,5-dimethyl-6-((1R,5S)-2-oxo-3-azabicyclo[3.1.0]hexan-3-yl)pyridin-3-yl)ethyl)-1H-pyrazole-4-carboxamide]
1.8 nM	COc1c(N2C[C@H]3C[C@H]3C2=O)ncc(C(C)n2cc(C(=O)N[C@H]3C[C@@H](c4cc(Cl)ccc4C#N)C3)cn2)c1C (single isomer, unassigned) [Example 43, N-((cis)-3-(5-chloro-2-cyanophenyl)cyclobutyl)-1-((R or S)-1-(5-methoxy-4-methyl-6-((1R,5S)-2-oxo-3-azabicyclo[3.1.0]hexan-3-yl)pyridin-3-yl)ethyl)-1H-pyrazole-4-carboxamide]
